According to patent US20240254119A1 (THIRD HARMONIC BIO, INC., priority 2022, published 2024):

Assays:
Kinetic solubility assay = assay type: physicochemical; conditions: kinetic solubility, 50 mM PB (pH 7.4), shaken 24 hours at RT
Summary of the method: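 Concentration in the filtrate was determined by UPLC-UV or HPLC-UV with a standard curve. Before that, compound (10 mM DMSO stock) in 50 mM PB at pH 7.4 was agitated 24 h at room temperature, then PTFE-filtered with centrifugation.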

wtKIT [1] = target: T1, wtKIT (Homo sapiens, UniProt P10721); test: HTRF biochemical assay, wtKIT (phosphorylation of a peptide substrate); conditions: Table 4
T1 construct: 1888289AM in the reaction mixtures
Summary of the method: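 HTRF read-out of FAM-peptide (1 µM) phosphorylation after anti-phosphotyrosine antibody addition and EDTA quench. Reaction: 5.0 nM wtKIT, 400 µM ATP, 10 mM Mn2+, HEPES pH 7.5, 1% DMSO, 3 h, 25 °C; optional enzyme-compound preincubation; enzyme level set for 10-20% conversion.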

[2] = tested on: KIT phosphorylation in M-07e cells; test: Cell-based KIT phosphorylation in M-07e cells by pKIT ELISA; parameters: species or system human; conditions: SCF stimulation
Procedure: Exemplary compounds were tested for ability to inhibit KIT phosphorylation using M-07e cells as monitored by pKIT ELISA. M-07e cells are also represented as M-07E, M-07e, M07-e, M07e, Mo7e, MO7e, M07E and MO7E. Assay procedures and results are described below.
Part I—Procedures for Determining KIT Inhibition inM-07e Cells Using pKTT ELISA Reagents and consumables: • M-07e cells: Initially obtained from Accegen, cat #ABC-TC1313 • p-cKIT Capture ELISA antibody: anti-Human Phospho-CD117/c-kit, R&D cat #DYC3527-5 • Anti-pY-HIRP antibody: R&D cat #DYC3527-5 • 25× wash buffer: Quantikine ELISA Wash Buffer 1, R&D cat #WA126 • PBS: R&D cat #DY006 • 96 well ELISA plates: Clear Polystyrene Microplates, R&D Cat #DY990 • 96 well Tissue culture plates: Corning® 96 Well TC-Treated Microplates, cat #CLS3894 • RPMI medium: ATCC® RPMI-1640 Medium, Cat #30-2001 • FBS: Fetal Bovine Serum, certified, United States Gibco, Thermo-Fisher 16000044 • GM-CSF: Recombinant Human GM-CSF Protein, R&D cat #215-GM • SCF: Recombinant Human SCF Protein, R&D cat #255-SC
• 1. Prepare cells: • a. Culture M-07e cells in RPMI medium+20% serum+GM-CSF+penstrep • To make 50 mL of growth medium • i. 40 mL RPMI media • ii. 10 mL FBS • iii. 10 uL of GM-CSF (100 ug/mL stock) • iv. 0.5 mL pen strep (100×) • b. Harvest cells • c. Re-suspend cells in 100% RPMI media (without serum) to final concentration of 1 million cells/mL • d. Transfer 100 uL of cell solution to 11 columns of a 96 well flat bottom cell culture plate • e. Incubate cells over night at 37 C • 2. Prepare ELISA Plates: • a. Dilute capture antibody to concentration 4 ug/mL in PBS • b. Coat 96 well microplates with 100 uL of capture antibody • c. Seal plates and incubate at RT overnight • d. Wash plates with 300 uL of wash buffer • e. Repeat wash • f. Treat plates with 300 uL of blocking buffer at RT for 1 hour • 3. Addition of compounds: • a. Prepare compound dilutions in RPMI media • i. Top test concentration is 1 uM • ii. Serially dilute compounds 3× for a total of 8 concentrations • b. Add 10 uL of 10× compound dilutions to cells • i. No compounds added in column 11 (for controls) • c. Incubate cells with compounds for 2 hours at 37 C • d. Stimulate cells with SCF for 5 min at concentration of 100 ng/mL (final) • i. In column 11 stimulate top 4 wells. Leave bottom 4 wells unstimulated • e. Remove cell culture media with multichannel pipet • f. Add 110 uL of Lysis buffer to all wells • g. Incubate plates at RT for 30 min while shaking • 4. Transfer 100 uL of cell lysis to each prepared Elisa plate • 5. Add 100 uL of the standard pc-KIT dilutions to the standard wells in column 12 • a. Top concentration=2000 pg/mL • b. 2× dilutions • 6. Incubate ELISA plate with cell lysate for 2 hours at RT • 7. Wash Plate with wash buffer (wash 1) • 8. Repeat wash (wash 2) • 9. […] Add 100 uL of diluted anti-pY-HRP (1/1000 dilution in detection antibody dilution buffer) and incubate 2 hours at RT • 11. Wash plate with wash buffer (wash 1) • 12. Repeat wash (wash 2) • 13. Repeat wash (wash 3) • 14. Add 100 uL of substrate solution to each well • 15. Incubate plates 20 min • Note: Plate development is indicated by aqua color • 16. Add 50 uL of stop solution to each well • 17. Determine optical density on Bitek Synergy Neo2: • a. Make new experiment
Select absorbance 1 set to 450 nm

wtKIT [3] = target: T1, wtKIT; test: Caliper biochemical assay, wtKIT; conditions: Table 6, read-out: KIT Biochemical IC50 avg
Summary of the method: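 Mobility-shift read-out: after EDTA stop, fluorescent peptide substrate and product resolved electrophoretically on LabChip 3000. Reaction ran 3 h at 25° C with 400 μM ATP, Mn^2+ cofactor, 5.0 nM wtKIT, 1 μM FAM-peptide, pH 7.5 HEPES buffer; no-enzyme wells defined full inhibition.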

CSF-1R = target: T2, CSF-1R (Homo sapiens, UniProt P07333); test: Caliper biochemical assay, CSF-1R; conditions: Table 6
T2 construct: purchased Invitrogen PV3249 (lot 662393N)
Summary of the method: (§1)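 Mobility-shift readout: after EDTA quench, fluorescent peptide and product are resolved electrophoretically on a LabChip and measured by fluorescence. Reactions contain enzyme, carboxyfluorescein peptide, ATP, Mn^2+ and compound, run 3 h at 25° C; 100% inhibition control lacks enzyme.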

PDGFRα = target: T3, PDGFRα (Homo sapiens, UniProt P16234); test: Caliper biochemical assay, PDGFRα; conditions: Table 6
T3 construct: purchased Millipore 14-467 (lot 26321_ACTI)
Summary of the method: as §1

[4] = target: T4, BCRP (BCRP-MDCKII monolayer) (Homo sapiens, UniProt Q9UNQ0); test: MDCKII-BCRP bidirectional transport assay; assay type: in vitro ADME; conditions: for MDCK-BCRP: Papp A-B: apical to basolateral
T4 construct: host or cells: MDCKII (canine kidney) cells
T4 sequence (Q9UNQ0 1-655): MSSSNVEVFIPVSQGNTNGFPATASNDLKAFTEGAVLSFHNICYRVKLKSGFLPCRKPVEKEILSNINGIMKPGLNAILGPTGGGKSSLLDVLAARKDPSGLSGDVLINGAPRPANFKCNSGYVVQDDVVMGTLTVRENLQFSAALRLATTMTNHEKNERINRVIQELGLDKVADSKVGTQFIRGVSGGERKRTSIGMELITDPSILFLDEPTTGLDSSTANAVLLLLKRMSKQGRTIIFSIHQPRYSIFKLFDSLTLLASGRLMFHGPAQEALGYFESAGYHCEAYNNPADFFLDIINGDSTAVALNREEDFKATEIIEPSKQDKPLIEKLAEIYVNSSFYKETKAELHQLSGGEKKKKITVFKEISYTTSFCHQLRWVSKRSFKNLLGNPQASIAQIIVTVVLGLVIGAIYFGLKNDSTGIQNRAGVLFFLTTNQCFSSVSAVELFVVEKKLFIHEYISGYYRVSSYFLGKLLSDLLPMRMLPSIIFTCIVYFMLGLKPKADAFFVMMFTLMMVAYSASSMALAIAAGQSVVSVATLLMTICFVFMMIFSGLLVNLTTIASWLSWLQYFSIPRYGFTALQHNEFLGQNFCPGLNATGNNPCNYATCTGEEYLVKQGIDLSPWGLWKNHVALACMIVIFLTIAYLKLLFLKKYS
Summary of the method: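 Efflux ratios were derived from Papp values, alongside recovery, with compounds quantified by LC-MS/MS. Both directions were tested in duplicate across BCRP-MDCKII monolayers used on days 12–15. Incubation ran 120 min at 37° C, 5% CO2, after a 15 min preincubation in assay buffer.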

T2 sequence (P07333 20-972): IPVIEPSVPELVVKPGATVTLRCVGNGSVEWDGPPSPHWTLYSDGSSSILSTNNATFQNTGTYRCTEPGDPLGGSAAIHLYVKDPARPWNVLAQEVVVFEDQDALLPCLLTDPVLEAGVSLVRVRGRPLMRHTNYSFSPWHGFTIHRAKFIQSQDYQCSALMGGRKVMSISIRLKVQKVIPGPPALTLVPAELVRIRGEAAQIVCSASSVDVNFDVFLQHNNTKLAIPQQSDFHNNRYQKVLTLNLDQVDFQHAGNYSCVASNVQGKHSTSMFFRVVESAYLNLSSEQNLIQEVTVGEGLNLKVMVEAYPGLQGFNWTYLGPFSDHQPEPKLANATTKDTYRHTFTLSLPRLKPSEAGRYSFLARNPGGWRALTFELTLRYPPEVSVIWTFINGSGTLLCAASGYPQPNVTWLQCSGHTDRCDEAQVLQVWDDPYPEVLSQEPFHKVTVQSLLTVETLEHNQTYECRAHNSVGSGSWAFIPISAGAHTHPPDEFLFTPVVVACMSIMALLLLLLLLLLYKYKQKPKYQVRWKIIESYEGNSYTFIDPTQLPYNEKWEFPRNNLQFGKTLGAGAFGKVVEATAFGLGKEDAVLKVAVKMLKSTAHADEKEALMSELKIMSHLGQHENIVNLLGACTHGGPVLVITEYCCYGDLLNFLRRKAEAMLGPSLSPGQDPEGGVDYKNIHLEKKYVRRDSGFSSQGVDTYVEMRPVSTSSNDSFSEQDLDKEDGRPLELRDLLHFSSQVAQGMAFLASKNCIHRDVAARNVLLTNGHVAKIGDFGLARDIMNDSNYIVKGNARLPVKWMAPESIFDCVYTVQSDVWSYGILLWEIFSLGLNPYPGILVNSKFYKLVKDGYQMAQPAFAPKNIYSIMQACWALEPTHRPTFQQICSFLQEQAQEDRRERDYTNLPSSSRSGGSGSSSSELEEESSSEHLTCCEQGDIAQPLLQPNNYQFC
T1 sequence (P10721 26-976): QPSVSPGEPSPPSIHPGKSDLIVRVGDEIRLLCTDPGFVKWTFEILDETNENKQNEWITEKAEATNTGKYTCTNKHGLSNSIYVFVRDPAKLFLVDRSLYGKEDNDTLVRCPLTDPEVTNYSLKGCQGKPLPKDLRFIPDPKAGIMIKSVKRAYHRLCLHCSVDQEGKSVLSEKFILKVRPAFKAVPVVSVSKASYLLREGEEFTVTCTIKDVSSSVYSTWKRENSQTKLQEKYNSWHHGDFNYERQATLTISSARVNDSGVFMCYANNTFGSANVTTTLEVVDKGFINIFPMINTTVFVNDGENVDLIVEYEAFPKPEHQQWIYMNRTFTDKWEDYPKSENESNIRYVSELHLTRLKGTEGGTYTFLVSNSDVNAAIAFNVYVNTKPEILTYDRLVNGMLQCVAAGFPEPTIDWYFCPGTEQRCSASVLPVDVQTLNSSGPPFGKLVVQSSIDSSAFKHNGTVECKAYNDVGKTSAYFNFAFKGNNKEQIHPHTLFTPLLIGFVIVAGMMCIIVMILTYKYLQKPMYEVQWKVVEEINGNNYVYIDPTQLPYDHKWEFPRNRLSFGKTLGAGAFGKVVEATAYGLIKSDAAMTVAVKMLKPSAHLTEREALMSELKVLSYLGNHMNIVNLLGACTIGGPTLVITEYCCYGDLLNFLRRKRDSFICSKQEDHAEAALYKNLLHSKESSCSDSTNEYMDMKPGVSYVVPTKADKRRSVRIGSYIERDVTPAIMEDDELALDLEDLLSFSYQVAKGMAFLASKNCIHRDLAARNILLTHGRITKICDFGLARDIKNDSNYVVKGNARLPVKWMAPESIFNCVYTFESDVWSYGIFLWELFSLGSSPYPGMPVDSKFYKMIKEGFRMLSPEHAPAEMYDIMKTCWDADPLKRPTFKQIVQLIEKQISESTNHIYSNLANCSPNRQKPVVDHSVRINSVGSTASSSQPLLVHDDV
T3 sequence (P16234 24-1089): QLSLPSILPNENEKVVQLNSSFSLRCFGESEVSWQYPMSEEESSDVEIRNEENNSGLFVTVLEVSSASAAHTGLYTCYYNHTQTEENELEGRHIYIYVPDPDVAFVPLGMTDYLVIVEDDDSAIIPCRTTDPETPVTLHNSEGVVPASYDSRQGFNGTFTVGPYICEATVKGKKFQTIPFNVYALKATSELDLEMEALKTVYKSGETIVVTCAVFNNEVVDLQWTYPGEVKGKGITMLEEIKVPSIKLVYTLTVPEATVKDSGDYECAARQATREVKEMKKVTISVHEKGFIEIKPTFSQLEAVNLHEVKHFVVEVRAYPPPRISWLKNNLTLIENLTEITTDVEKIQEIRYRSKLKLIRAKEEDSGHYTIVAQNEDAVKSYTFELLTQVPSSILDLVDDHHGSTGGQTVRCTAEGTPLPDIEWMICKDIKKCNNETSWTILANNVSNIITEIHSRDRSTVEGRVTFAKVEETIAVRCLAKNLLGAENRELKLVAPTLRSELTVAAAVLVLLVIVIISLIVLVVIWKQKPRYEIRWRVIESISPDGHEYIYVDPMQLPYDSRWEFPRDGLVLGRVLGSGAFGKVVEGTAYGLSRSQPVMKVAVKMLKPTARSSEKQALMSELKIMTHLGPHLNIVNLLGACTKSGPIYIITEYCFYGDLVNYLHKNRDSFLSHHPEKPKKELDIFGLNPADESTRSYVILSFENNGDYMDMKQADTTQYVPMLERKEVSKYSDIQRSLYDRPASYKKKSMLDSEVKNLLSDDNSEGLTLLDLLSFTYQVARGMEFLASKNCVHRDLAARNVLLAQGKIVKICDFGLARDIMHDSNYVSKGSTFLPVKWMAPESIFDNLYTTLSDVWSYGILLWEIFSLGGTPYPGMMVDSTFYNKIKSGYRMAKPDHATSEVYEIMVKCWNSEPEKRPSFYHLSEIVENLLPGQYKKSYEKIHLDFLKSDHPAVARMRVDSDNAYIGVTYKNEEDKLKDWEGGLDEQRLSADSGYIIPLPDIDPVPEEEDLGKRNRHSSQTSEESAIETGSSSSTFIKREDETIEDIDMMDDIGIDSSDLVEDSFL

| SMILES | Solubility (μM) (Kinetic solubility assay) | IC50 (wtKIT [1]) [nM] | IC50 [2] [nM] | IC50 (wtKIT [3]) [nM] | IC50 (CSF-1R) [nM] | IC50 (PDGFRα) [nM] | MDCK-BCRP: Efflux Ratio [4] | MDCK-BCRP: Papp A-B [4] |
| --- | --- | --- | --- | --- | --- | --- | --- | --- |
| COC(=O)N1CC(c2nc(-c3ccc(C#N)c(NC(=O)c4cnc5ccccn45)c3)no2)C1 [Compound I-212] | *** (a solubility greater than 2 μM and less than or equal to 10 μM) | 50 to 500 | 50 to 500 | 50 to 500 |  |  |  |  |
| Cc1ccc(-c2noc(C3CC4(C3)CC(F)(F)C4)n2)cc1NC(=O)c1cnc2ccccn12 [Compound I-266] | **** (a solubility less than or equal to 2 μM) | ≤ 50 | ≤ 50 | ≤ 50 | ≤ 50 | 50 to 500 |  |  |
| COC(=O)N1CC(c2nc(-c3ccc(C)c(NC(=O)c4cnc5cc(OCC(C)(C)O)ccn45)c3)no2)C1 [Compound I-261] | ** (a solubility greater than 10 μM and less than or equal to 50 μM) | ≤ 50 | ≤ 50 | ≤ 50 | ≤ 50 | 50 to 500 |  |  |
| Cc1ccc(-c2noc(C[C@@H](C)O)n2)cc1NC(=O)c1cnc2cc(C(F)F)ccn12 [Compound I-83] | **** (a solubility less than or equal to 2 μM) |  | ≤ 50 |  |  |  | 25.3 | 0.96 10^−6 cm/s |
| COC(=O)N1CC(c2nc(-c3ccc(C)c(NC(=O)c4cnc5cc(OCCO)ccn45)c3)no2)C1 [Compound I-264] | ** (a solubility greater than 10 μM and less than or equal to 50 μM) | ≤ 50 |  | ≤ 50 | ≤ 50 | 50 to 500 | 24.2 | 0.71 10^−6 cm/s |
| COC(=O)N1CC(c2nc(-c3ccc(C)c(NC(=O)c4cnn5ccc(C#N)cc45)c3)no2)C1 [Compound I-265] | ** (a solubility greater than 10 μM and less than or equal to 50 μM) | 50 to 500 |  | 50 to 500 | 5000 to 30000 | 5000 to 30000 | 19.4 | 1 10^−6 cm/s |
| Cc1ccc(-c2noc([C@@H]3CCN3S(=O)(=O)c3cn(C)cn3)n2)cc1NC(=O)c1cnc2ccccn12 [Compound I-184] | **** (a solubility less than or equal to 2 μM) |  | 500 to 5000 | ≤ 50 | 50 to 500 | 500 to 5000 |  |  |
| Cc1ccc(-c2noc(C3CC3(C)C)n2)cc1NC(=O)c1cnc2ccccn12 (stereo not shown) [Compound I-127] |  |  | ≤ 50 | ≤ 50 | ≤ 50 | 50 to 500 |  |  |
